Data reported in US8058306B2, “Phenyl pyrrole aminoguanidine derivatives” (Action Pharma A/S, priority 2006, dated 2011).
Values joined by “and” are separate entries in the source; they are usually repeats but may differ in a detail not shown here. Equal values may be shown once. “Also recorded” adds a separate entry of the source. Read-outs that look alike come from different tables or passages of the source.

Experiment: Plasma kinetics in rat following intravenous and oral administration
Assay type: in vivo, Sprague Dawley rats
Details: male rats; for concentration at 24 h: iv; for MRT: read-out: MRT
Procedure: This study determined the intravenous pharmacokinetics and oral bioavailability of compound 1 of the invention (see FIG. 1A, structure no. 1), compound 2 of the invention (see FIG. 1D, structure no. 19) and compound 3 of the invention (see FIG. 1I, structure no. 53) following administration to Sprague Dawley rats at a dose level of 10 mg/kg.
Six groups of 3 male rats received either a single intravenous or single oral administration of compound 1, 2 or 3 of the invention at a dose level of 10 mg/kg. Blood samples were obtained at various times after dosing. Plasma samples were analysed for unchanged test item using a suitable LC-MS/MS method. Pharmacokinetic parameters were estimated from individual plasma concentrations.
Eighteen male rats each received either a single intravenous or a single oral administration of either compound 1, 2 or 3 at a dose level of 10 mg/kg. The formulation was orally administered to each animal by gastric gavage and intravenously administered to each animal via a tail vein. The dose was administered at a dose volume of 5 mL/kg. The formulations were administered to each animal according to the details in the following table:
Blood samples (ca 0.3 mL) were removed from the femoral vein of each animal into tubes containing lithium heparin as anticoagulant.
Blood samples were collected from 3 rats at the following times after dose administration: • 3, 6, 15, 45 min and 1.5, 2.5, 4, 6, 8, 24 h post dose. Oral Administration
Blood samples were collected from 3 rats at the following times after dose administration: • 5, 15, 45 min and 1.5, 2.5, 4, 6, 8, 24 h post dose. Processing of Blood Samples
Pharmacokinetic parameters of compound 1, 2 and 3 were derived by non-compartmental analysis using WinNonLin Pro version 5.0.1 (Pharsight 2005). The following parameters were derived, where appropriate, from the individual plasma concentration versus time profiles:
• F % The absolute oral bioavailability calculated as [AUC0-t (oral)*Dose(iv)/AUC0-t (iv)*Dose (oral)]*100 based on mean values derived after oral and intravenous administration Consideration was given to the estimation of λz and corresponding t1/2 values. Three or more points are required within the terminal phase for λz and t1/2 to be estimated. The following additional variables were tabulated to aid identification of potentially unreliable estimates of t1/2 and AUC:
Pharmacokinetic parameters were reported as geometric mean except Tmax which was reported as the median. Geometric coefficient of variation was calculated as: […]
Actual sampling times were used for all calculations of pharmacokinetic parameters. Plasma concentrations that were below the limit of quantification were taken as zero for the pharmacokinetic analysis.

[1] = male, Sprague Dawley, rat, plasma, po, 10 mg/kg, oral 10 mg/kg, individual animals
[2] = oral 10 mg/kg, individual animals, acetate, 10 mg/kg

In the case of `N=C(N)NN=CC=Cc1cccn1-c1ccccc1[N+](=O)[O-]` [Compound 2, [1-(2-nitrophenyl)-1H-pyrrol-2-yl-allylideneamino]guanidinium acetate], the concentration at 24 h (male, Sprague Dawley, rat, plasma, 10 mg/kg, single intravenous 10 mg/kg, 24 h, individual animals, LLOQ 2.50, read-out: Sample Concentration in plasma) is reported as 3.95 ng/mL, the concentration at 24 h (male, Sprague Dawley, rat, plasma, 10 mg/kg, single intravenous 10 mg/kg, 24 h, mean, read-out: Mean Concentration in plasma) is reported as 3.95 ng/mL and the AUC(0-t) (male, Sprague Dawley, rat, plasma, po, 10 mg/kg, oral 10 mg/kg, Arithmetic Mean, read-out: AUC0-t) is reported as 67.4 ng·h/mL. It also gave a Cmax (male, Sprague Dawley, rat, plasma, po, 10 mg/kg, oral 10 mg/kg, Arithmetic Mean, read-out: Cmax) of 31.2 ng/mL, a Tmax (male, Sprague Dawley, rat, plasma, po, 10 mg/kg, oral 10 mg/kg, Arithmetic Mean, read-out: tmax) of 1.75 h and an AUC(0-t) (male, Sprague Dawley, rat, plasma, po, 10 mg/kg, oral 10 mg/kg, Geometric mean, read-out: AUC0-t) of 66.1 ng·h/mL. It also gave a Cmax (male, Sprague Dawley, rat, plasma, po, 10 mg/kg, oral 10 mg/kg, Geometric mean, read-out: Cmax) of 26.3 ng/mL, an MRT (male, Sprague Dawley, rat, plasma, po, 10 mg/kg, oral 10 mg/kg, Geometric mean) of 3.06 h and a half-life (male, Sprague Dawley, rat, plasma, po, 10 mg/kg, oral 10 mg/kg, Geometric mean, read-out: t1/2 (converted)) of 135 min. The Tmax (male, Sprague Dawley, rat, plasma, po, 10 mg/kg, oral 10 mg/kg, Geometric mean, read-out: tmax) was 1.16 h, the AUC(0-t) (male, Sprague Dawley, rat, plasma, po, 10 mg/kg, oral 10 mg/kg, Median, read-out: AUC0-t) was 62.6 ng·h/mL and the Cmax (male, Sprague Dawley, rat, plasma, po, 10 mg/kg, oral 10 mg/kg, Median, read-out: Cmax) was 18.8 ng/mL. For the same compound, the Tmax (male, Sprague Dawley, rat, plasma, po, 10 mg/kg, oral 10 mg/kg, Median, read-out: tmax) was 2.5 h, the AUC(0-inf) [1] was 102 ng·h/mL and the AUC(0-t) (male, Sprague Dawley, rat, plasma, po, 10 mg/kg, oral 10 mg/kg, individual animals, read-out: AUC0-t) was 85.6 ng·h/mL. The MRT [1] was 3.06 h, the half-life (male, Sprague Dawley, rat, plasma, po, 10 mg/kg, oral 10 mg/kg, individual animals, read-out: t1/2 (converted)) was 135 min and the Tmax (male, Sprague Dawley, rat, plasma, po, 10 mg/kg, oral 10 mg/kg, from mean plasma concentrations, read-out: time post dose at which maximum plasma concentration was observed (tmax)) was 2.5 h. It also gave a half-life (male, Sprague Dawley, rat, plasma, po, 10 mg/kg, oral 10 mg/kg, read-out: apparent terminal half-life (converted)) of 135 min, a concentration at 0.05 h (male, Sprague Dawley, rat, plasma, po, 10 mg/kg, single oral 10 mg/kg, 0.05 h, individual animals, LLOQ 2.50, read-out: Sample Concentration in plasma) of 4.68 ng/mL and a concentration at 0.05 h (male, Sprague Dawley, rat, plasma, po, 10 mg/kg, single oral 10 mg/kg, 0.05 h, mean, read-out: Mean Concentration in plasma) of 4.68 ng/mL. The concentration at 0.25 h (male, Sprague Dawley, rat, plasma, po, 10 mg/kg, single oral 10 mg/kg, 0.25 h, mean of 3, read-out: Mean Concentration in plasma) was 25.5 ng/mL, the concentration at 0.75 h (male, Sprague Dawley, rat, plasma, po, 10 mg/kg, single oral 10 mg/kg, 0.75 h, mean of 3, read-out: Mean Concentration in plasma) was 13.9 ng/mL and the concentration at 1.5 h (male, Sprague Dawley, rat, plasma, po, 10 mg/kg, single oral 10 mg/kg, 1.5 h, individual animals, read-out: Sample Concentration in plasma) was 9.56 ng/mL. The concentration at 1.5 h (male, Sprague Dawley, rat, plasma, po, 10 mg/kg, single oral 10 mg/kg, 1.5 h, mean of 3, read-out: Mean Concentration in plasma) was 12.3 ng/mL, the concentration at 2.5 h (male, Sprague Dawley, rat, plasma, po, 10 mg/kg, single oral 10 mg/kg, 2.5 h, individual animals, read-out: Sample Concentration in plasma) was 16.5 ng/mL and the concentration at 2.5 h (male, Sprague Dawley, rat, plasma, po, 10 mg/kg, single oral 10 mg/kg, 2.5 h, mean of 3, read-out: Mean Concentration in plasma) was 17.1 ng/mL. The concentration at 4 h (male, Sprague Dawley, rat, plasma, po, 10 mg/kg, single oral 10 mg/kg, 4 h, mean of 3, read-out: Mean Concentration in plasma) was 7.91 ng/mL, the concentration at 6 h (male, Sprague Dawley, rat, plasma, po, 10 mg/kg, single oral 10 mg/kg, 6 h, individual animals, read-out: Sample Concentration in plasma) was 2.76 ng/mL and the concentration at 6 h (male, Sprague Dawley, rat, plasma, po, 10 mg/kg, single oral 10 mg/kg, 6 h, mean of 3, read-out: Mean Concentration in plasma) was 3.81 ng/mL. For the same compound, the MAT (oral 10 mg/kg, individual animals) was -0.465 h, the AUC(0-t) [2] was 62.6 ng·h/mL and 54.0 ng·h/mL and the Cmax [2] was 58.4 ng/mL and 16.5 ng/mL. The Tmax [2] was 0.250 h, the “maximum observed plasma concentration, mean value” (oral 10 mg/kg, at tmax) was 17.1 ng/mL and the “Sample Concentration in plasma” value (single intravenous 10 mg/kg, 0.05 h, individual animals, acetate, 10 mg/kg) was 2270 ng/mL and 3150 ng/mL. For the same compound, the “Sample Concentration in plasma” value (single intravenous 10 mg/kg, 0.1 h, individual animals, acetate, 10 mg/kg) was 1020 ng/mL and 1410 ng/mL, the “Sample Concentration in plasma” value (single intravenous 10 mg/kg, 0.25 h, individual animals, acetate, 10 mg/kg) was 612 ng/mL and 712 ng/mL and the “Sample Concentration in plasma” value (single intravenous 10 mg/kg, 0.75 h, individual animals, acetate, 10 mg/kg) was 237 ng/mL and 334 ng/mL. The “Sample Concentration in plasma” value (single intravenous 10 mg/kg, 1.5 h, individual animals, acetate, 10 mg/kg) was 232 ng/mL and 168 ng/mL, the “Sample Concentration in plasma” value (single intravenous 10 mg/kg, 2.5 h, individual animals, acetate, 10 mg/kg) was 183 ng/mL and 194 ng/mL and the “Sample Concentration in plasma” value (single intravenous 10 mg/kg, 4 h, individual animals, acetate, 10 mg/kg) was 158 ng/mL and 115 ng/mL. The “Sample Concentration in plasma” value (single intravenous 10 mg/kg, 6 h, individual animals, acetate, 10 mg/kg) was 116 ng/mL and 58.1 ng/mL, the “Sample Concentration in plasma” value (single intravenous 10 mg/kg, 8 h, individual animals, LLOQ 2.50, acetate, 10 mg/kg) was 42.7 ng/mL and 98.4 ng/mL and 54.1 ng/mL and the “Sample Concentration in plasma” value (single intravenous 10 mg/kg, 24 h, individual animals, LLOQ 2.50, acetate, 10 mg/kg) was “<LLOQ”. For the same compound, the adverse effects (single intravenous or oral administration, 10 mg/kg, acetate) was “No adverse effects; also recorded: No adverse affects”, the “Sample Concentration in plasma” value (single oral 10 mg/kg, 0.05 h, individual animals, LLOQ 2.50, acetate, 10 mg/kg) was “<LLOQ” and the “Sample Concentration in plasma” value (single oral 10 mg/kg, 0.25 h, individual animals, acetate, 10 mg/kg) was 9.11 ng/mL and 9.01 ng/mL and 58.4* ng/mL. For the same compound, the “Sample Concentration in plasma” value (single oral 10 mg/kg, 0.75 h, individual animals, acetate, 10 mg/kg) was 9.02 ng/mL and 10.4 ng/mL and 22.4 ng/mL, the “Sample Concentration in plasma” value (single oral 10 mg/kg, 1.5 h, individual animals, acetate, 10 mg/kg) was 9.84 ng/mL and 17.4 ng/mL and the “Sample Concentration in plasma” value (single oral 10 mg/kg, 2.5 h, individual animals, acetate, 10 mg/kg) was 18.8 ng/mL and 16.1 ng/mL. The “Sample Concentration in plasma” value (single oral 10 mg/kg, 4 h, individual animals, acetate, 10 mg/kg) was 12.6 ng/mL and 4.79 ng/mL and 6.35 ng/mL, the “Sample Concentration in plasma” value (single oral 10 mg/kg, 6 h, individual animals, acetate, 10 mg/kg) was 3.74 ng/mL and 4.94 ng/mL and the “Sample Concentration in plasma” value (single oral 10 mg/kg, 8 h, individual animals, LLOQ 2.50) was “<LLOQ”. The “Mean Concentration in plasma” value (single oral 10 mg/kg, 8 h, mean, LLOQ 2.50) was “<LLOQ”, the “Sample Concentration in plasma” value (single oral 10 mg/kg, 24 h, individual animals, LLOQ 2.50) was “<LLOQ” and the “Mean Concentration in plasma” value (single oral 10 mg/kg, 24 h, mean, LLOQ 2.50) was “<LLOQ”.
